Reference: the supplement of paper PMC11061612

Tests used:
Olaparib = compound: O=C(c1cc(Cc2n[nH]c(=O)c3ccccc23)ccc1F)N1CCN(C(=O)C2CC2)CC1 [Olaparib]
How it was run: (§1)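 Following 24 hours at 37°C and 5% CO2, cancer cell lines in 1536-well plates with 7.5 μl DMEM/F12 or RPMI and 10% FBS were dosed for 72 hours, final DMSO typically being 0.2%. CellTiter-Glo 2.0 luminescence, scaled between blank-well and DMSO-well means, gave the viability readout. Dose responses were fitted to a two-parameter logistic curve with a non-linear mixed effects model, and the single-agent IC50 was derived from this fit.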

AZD5153 = compound: COc1nnc2ccc(N3CCC(c4ccc(OCCN5CCN(C)C(=O)[C@H]5C)cc4)CC3)nn12 [AZD5153]; details: max 1 µM
How it was run: as §1

Doxorubicin = compound: COc1cccc2c1C(=O)c1c(O)c3c(c(O)c1C2=O)C[C@@](O)(C(=O)CO)C[C@@H]3O[C@H]1C[C@H](N)[C@H](O)[C@H](C)O1 [Doxorubicin]; details: max 1 µM
How it was run: as §1

AZD0156 = compound: CN(C)CCCOc1ccc(-c2ccc3ncc4c(c3c2)n(C2CCOCC2)c(=O)n4C)cn1 [AZD0156]; details: max 3 µM
How it was run: as §1

Selumetinib = compound: Cn1cnc2c(F)c(Nc3ccc(Br)cc3Cl)c(C(=O)NOCCO)cc21 [Selumetinib]; details: max 10 µM
How it was run: as §1

SN-38 = compound: CCc1c2c(nc3ccc(O)cc13)-c1cc3c(c(=O)n1C2)COC(=O)[C@]3(O)CC [SN-38]; details: max 0.3 µM
How it was run: as §1

SG3199 = compound: CC1=CN2[C@@H](C1)C=NC3=CC(=C(C=C3C2=O)OC)OCCCCCOC4=C(C=C5C(=C4)N=C[C@@H]6CC(=CN6C5=O)C)OC [SG3199]; details: max 0.001 µM
How it was run: as §1

Crizotinib = compound: C[C@@H](Oc1cc(-c2cnn(C3CCNCC3)c2)cnc1N)c1c(Cl)ccc(F)c1Cl [Crizotinib]; details: max 10 µM
How it was run: as §1

AZD6738 = compound: C[C@@H]1COCCN1C2=NC(=NC(=C2)C3(CC3)[S@](=N)(=O)C)C4=C5C=CNC5=NC=C4 [AZD6738]; details: max 10 µM
How it was run: as §1

AZD2811 = compound: CCN(CCO)CCCOc1ccc2c(Nc3cc(CC(=O)Nc4cccc(F)c4)[nH]n3)ncnc2c1 [AZD2811]; details: max 1 µM
How it was run: as §1

AZD7648 = compound: Cc1cc2ncnn2cc1Nc1ncc2c(n1)n(C1CCOCC1)c(=O)n2C [AZD7648]; details: max 10 µM
How it was run: as §1

AZD1390 = compound: CC(C)n1c(=O)n(C)c2cnc3cc(F)c(-c4ccc(OCCCN5CCCCC5)nc4)cc3c21 [AZD1390]; details: max 0.3 µM
How it was run: as §1

Taselisib = compound: Cc1nc(-c2cn3c(n2)-c2ccc(-c4cnn(C(C)(C)C(N)=O)c4)cc2OCC3)n(C(C)C)n1 [Taselisib]; details: max 10 µM
How it was run: as §1

Capivasertib = compound: C1CN(CCC1(C(=O)N[C@@H](CCO)C2=CC=C(C=C2)Cl)N)C3=NC=NC4=C3C=CN4 [Capivasertib]
How it was run: as §1

AZD8186 = compound: C[C@@H](Nc1cc(F)cc(F)c1)c1cc(C(=O)N(C)C)cc2c(=O)cc(N3CCOCC3)oc12 [AZD8186]; details: max 3 µM
How it was run: as §1

AZD4320 = compound: CN(CC[C@H](CSC1=CC=CC=C1)NC2=C(C=C(C=C2)S(=O)(=O)NC(=O)C3=CC=C(C=C3)N4CCC(CC4)[C@H](C5=CC=CC=C5C6=CC=C(C=C6)Cl)O)S(=O)(=O)C(F)(F)F)CCO [AZD4320]; details: max 1 µM
How it was run: as §1

Venetoclax = compound: CC1(C)CCC(CN2CCN(c3ccc(C(=O)NS(=O)(=O)c4ccc(NCC5CCOCC5)c([N+](=O)[O-])c4)c(Oc4cnc5[nH]ccc5c4)c3)CC2)=C(c2ccc(Cl)cc2)C1 [Venetoclax]; details: max 1 µM
How it was run: as §1

AZD5991 = compound: Cc1c2c(nn1C)CSCc1cc(n(C)n1)CSc1cc(c3ccccc3c1)OCCCc1c(C(=O)O)n(C)c3c-2c(Cl)ccc13 [AZD5991]; details: max 1 µM
How it was run: as §1

Lapatinib = compound: CS(=O)(=O)CCNCc1ccc(-c2ccc3ncnc(Nc4ccc(OCc5cccc(F)c5)c(Cl)c4)c3c2)o1 [Lapatinib]; details: max 10 µM
How it was run: as §1

Trametinib = compound: CC(=O)Nc1cccc(-n2c(=O)n(C3CC3)c(=O)c3c(Nc4ccc(I)cc4F)n(C)c(=O)c(C)c32)c1 [Trametinib]; details: max 1 µM
How it was run: as §1

Alisertib = compound: COc1cc(Nc2ncc3c(n2)-c2ccc(Cl)cc2C(c2c(F)cccc2OC)=NC3)ccc1C(=O)O [Alisertib]; details: max 10 µM
How it was run: as §1

Gefitinib = compound: COc1cc2ncnc(Nc3ccc(F)c(Cl)c3)c2cc1OCCCN1CCOCC1 [Gefitinib]; details: max 10 µM
How it was run: as §1

Savolitinib = compound: C[C@@H](c1ccc2nccn2c1)n1nnc2ncc(-c3cnn(C)c3)nc21 [Savolitinib]; details: max 1 µM
How it was run: as §1

Palbociclib = compound: CC(=O)c1c(C)c2cnc(Nc3ccc(N4CCNCC4)cn3)nc2n(C2CCCC2)c1=O [Palbociclib]; details: max 10 µM
How it was run: as §1

Dasatinib = compound: CC1=C(C(=CC=C1)Cl)NC(=O)C2=CN=C(S2)NC3=CC(=NC(=N3)C)N4CCN(CC4)CCO [Dasatinib]; details: max 2 µM
How it was run: as §1

Prexasertib = compound: COc1cccc(OCCCN)c1-c1cc(Nc2cnc(C#N)cn2)n[nH]1 [Prexasertib]; details: max 1 µM
How it was run: as §1

AZD1775 = compound: C=CCn1c(=O)c2cnc(Nc3ccc(N4CCN(C)CC4)cc3)nc2n1-c1cccc(C(C)(C)O)n1 [AZD1775]; details: max 3 µM
How it was run: as §1

Cell Line | IC50, cell viability 72 h (Olaparib; max 10 µM) | IC50, cell viability 72 h (AZD5153) | IC50, cell viability 72 h (Doxorubicin) | IC50, cell viability 72 h (AZD0156) | IC50, cell viability 72 h (Selumetinib) | IC50, cell viability 72 h (SN-38) | IC50, cell viability 72 h (SG3199) | IC50, cell viability 72 h (Crizotinib) | IC50, cell viability 72 h (AZD6738) | IC50, cell viability 72 h (AZD2811) | IC50, cell viability 72 h (AZD7648) | IC50, cell viability 72 h (AZD1390) | IC50, cell viability 72 h (Taselisib) | IC50, cell viability 72 h (Capivasertib; max 10 µM) | IC50, cell viability 72 h (AZD8186) | IC50, cell viability 72 h (AZD4320) | IC50, cell viability 72 h (Venetoclax) | IC50, cell viability 72 h (AZD5991) | IC50, cell viability 72 h (Lapatinib) | IC50, cell viability 72 h (Trametinib) | IC50, cell viability 72 h (Alisertib) | IC50, cell viability 72 h (Gefitinib) | IC50, cell viability 72 h (Savolitinib) | IC50, cell viability 72 h (Palbociclib) | IC50, cell viability 72 h (Dasatinib) | IC50, cell viability 72 h (Prexasertib) | IC50, cell viability 72 h (AZD1775) | IC50, cell viability 72 h (Olaparib; max 3 µM) | IC50, cell viability 72 h (Capivasertib; max 3 µM)
ARH-77 (Non-Cancerous) | > 10000 nM | 61.8 nM | 143 nM | 1790 nM | > 10000 nM | 6.68 nM | > 1 nM | > 10000 nM | 1850 nM | > 1000 nM | > 10000 nM | > 300 nM | 528 nM | 1760 nM | 1270 nM | 100 nM | > 1000 nM | 229 nM | 8040 nM | > 1000 nM | 1170 nM | > 10000 nM | > 1000 nM | > 10000 nM | 233 nM | 15.5 nM | 189 nM | – | –
BT-483 (Breast Carcinoma) | – | – | – | > 3000 nM | – | – | – | – | – | – | – | – | – | – | – | – | – | – | – | – | – | – | – | – | – | – | > 3000 nM | > 3000 nM | > 3000 nM
CAL-29 (Bladder Carcinoma) | > 10000 nM | > 1000 nM | > 1000 nM | > 3000 nM | > 10000 nM | 14.3 nM | > 1 nM | > 10000 nM | 6080 nM | > 1000 nM | > 10000 nM | > 300 nM | 218 nM | > 10000 nM | > 3000 nM | > 1000 nM | > 1000 nM | > 1000 nM | > 10000 nM | > 1000 nM | > 10000 nM | > 10000 nM | > 1000 nM | > 10000 nM | > 2000 nM | 41.8 nM | 762 nM | – | –
CAS-1 (Glioblastoma) | > 10000 nM | 345 nM | > 1000 nM | > 3000 nM | > 10000 nM | 202 nM | > 1 nM | > 10000 nM | > 10000 nM | > 1000 nM | > 10000 nM | > 300 nM | > 10000 nM | 7050 nM | > 3000 nM | > 1000 nM | > 1000 nM | > 1000 nM | > 10000 nM | 465 nM | 4130 nM | > 10000 nM | > 1000 nM | > 10000 nM | 931 nM | 158 nM | 1600 nM | – | –
COLO-824 (Breast Carcinoma) | > 10000 nM | 233 nM | > 1000 nM | > 3000 nM | > 10000 nM | > 300 nM | > 1 nM | 4320 nM | 5510 nM | 55.8 nM | > 10000 nM | > 300 nM | 2460 nM | 7340 nM | > 3000 nM | 33.3 nM | 214 nM | > 1000 nM | 7960 nM | > 1000 nM | 3010 nM | > 10000 nM | > 1000 nM | > 10000 nM | > 2000 nM | 64.6 nM | 868 nM | – | –
